Measured values from patent publication US12707803B2, “Light-emitting device” (Semiconductor Energy Laboratory Co., Ltd., priority 2022, dated 2026).
≈ marks a conversion by molar mass, not a printed value.

Assay: water solubility of materials added to electron-injection buffer region
Type: physicochemical
Excerpt: The table below lists the number of hydrophilic hpp groups, the number of hydrophobic tert-butyl groups, and water solubility of the materials added to the electron-injection buffer regions 914 in the light-emitting devices 7A to 7K.

solubility: 58 to 62 µg/mL (≈ 82.5 to 88.2 µM)
Compound: CC(C)(C)c1ccc2c(c1)C1(c3cc(N4CCCN5CCCN=C54)ccc3-c3ccc(N4CCCN5CCCN=C54)cc31)c1cc(C(C)(C)C)ccc1-2 [2′,7′tBu-2,7hpp2SF, 1,1′-(2′,7′-di-tert-butyl-9,9′-spirobi[9H-fluorene]-2,7-diyl)bis(1,3,4,6,7,8-hexahydro-2H-pyrimido[1,2-a]pyrimidine)]
